Data published in patent US20190314436A1, “PHARMACEUTICAL COMPOSITION FOR PREVENTION OR TREATMENT OF LIVER CANCER AND HEALTH FUNCTIONAL FOOD” (KOREA BIO MEDICAL SCIENCE INSTITUTE CO., LTD, priority 2016, published 2019).

Legend:
[1] = test system: Huh7 cells; test: MTT assay, liver cancer growth inhibition / cell death; format: cell-based; conditions: 48 hours
Procedure: Hepatoma cell proliferation inhibitory efficacies of the Ulmi cortex extract (WSY-0), Nardostachys jatamansi extract (WSY-1), Lophatheri Herba extract (WSY-3) and Torilis japonica extract (WSY-37) in target cells or mice treated with the same were validated by MTT assay and effective concentrations thereof were determined.
In vitro liver cancer growth inhibitory abilities of four (4) natural products (WSY-0, WSY-1, WSY-3, and WSY-37) were verified by the MTT assay.
With respect to the 4 types of natural products, total 8 types of extracts were prepared through hydrothermal extraction and ethanol extraction, respectively. These extracts were identified to have in vitro liver cancer growth inhibitory ability in 5 types of liver cancer cell lines (Huh7, HepG2, Hep3B, PLC/PRF5, and SK-hep1).
Further, in treatment using each of three ethanol extracts in an amount of 200 μg/mL except WSY-37, the cell growth inhibitory ability was identified in 4 types of liver cancer cell lines except Hep G2 cells.
When treating Huh7 cells with sorafenib for 48 hours, it was identified that about 60% cell death was induced with 2 μM of sorafenib and about 80% cell death was induced with 4 μM of sorefenib, respectively (see FIG. 1).

[2] = test system: HCCLM3 cells; test: Cell death in hyper-metastatic HCC cell line; format: cell-based; conditions: HCCLM3, 16 μM, 48 hours
From the text: By treatment of HCCLM3 cells using WSY-1 or WSY-3 extract in ethanol to identify cell death effects, in vitro anti-cancer effects of the natural extracts on cell lines having different sorafenib sensitivities were investigated.

[3] = test system: HCCLM3 hepatocellular carcinoma; test: Orthotopic HCC model, HCCLM3 via liver portal vein; format: in vivo, Balb/c nu/nu mouse; conditions: 30 mpk oral daily, 8 weeks
From the text: Establishment of Hepatocellular Carcinoma (HCC) in Small Animal Models
In order to induce HCC in a small animal model, a method of injecting chemicals such as DEN or a method of directly injecting HCC cells into the model is used. Although DEN treatment is convenient in view of experiment, this process entails a disadvantage in that a long period of time (about 50 weeks) is required for generation of tumors (‘tumorigenesis’). Therefore, in order to efficiently verify in vivo anticancer effects of natural extracts for a short period of time, an orthotopic implantation model of directly injecting HCC cells into the liver of a mouse was implemented.
The orthotopic implantation model is a method of inducing formation of cancer in liver tissues by directly injecting HCC cell lines such as Huh7 or HCCLM3 into hepatic portal vein or mesenchyma (liver lobe) of the mouse, and takes about 8 weeks to form tumors, which is considerably shorter than DEN, thus being properly used.
Efficacies of the Ulmi cortex extract (WSY-0), Nardostachys jatamansi extract (WSY-1), Lophatheri Herba extract (WSY-3) or Torilis Japonica extract (WSY-37) on HCC formation and suppression thereof have been validated through liver gross, H & E staining and serum analysis. […]

[4] = test system: Hepa1-6 hepatocellular carcinoma; test: Orthotopic HCC model, Hepa1-6 via liver portal vein; format: in vivo, C57/BL6 mouse; conditions: WSY-1 100 mpk, sorafenib 30 mpk, oral daily
Procedure: In the present study, based on results of the primary in vivo efficacy validation experiment and preliminary experiment, the following experiment conditions were set up and the secondary validation experiment was implemented.
Administered cell/administration route: 5×10^5 Hepa1-6-GFP cells/liver portal vein
Dose/administration route/dosing frequency: WSY-1 100 mpk, sorafenib 30 mpk/oral administration/daily
5×10^5 Hepa1-6GFP cells were administered to the liver portal vein of each 6-week-old C57/BL6 mouse. 3 days later, the mice were randomly grouped, followed by administration of WSY-1 and sorafenib for 3 weeks.
During 3 weeks administration period, death (mortality) due to tumorigenesis was induced in the following experimental groups. After termination of the administration, survived mice were sacrificed and analyzed for anti-cancer effects.

[5] = test system: liver cancer; conditions: cited from earlier work

CNC(=O)c1cc(Oc2ccc(NC(=O)Nc3ccc(Cl)c(C(F)(F)F)c3)cc2)ccn1 [sorafenib]
cell death ([1]; Huh7, 2 μM): about 60% | cell death ([1]; Huh7, 4 μM): about 80% | apoptotic effects [2]: ≤ 50% | liver weight/body weight vs mice with HCCLM3 only [3]: decreased | death (mortality) due to tumorigenesis ([4]; 3 weeks administration): 4 out of 13 | liver weight/body weight vs mice injected with Hepa1-6 cells only ([4]; 3 weeks): significantly decreased | patients with partial response ([5]; 137 patients, Phase 2 clinical trials): ≤ 5% | extension of life compared to placebo dose group ([5]; orally administered): ~3 months
